Data published in ChEMBL document CHEMBL1121491, “Ultraviolet photoelectron spectroscopy of cyclic amidines. 2. Electronic structure of clonidine and some related 2-(phenylimino)imidazolidines with alpha-adrenergic activity” (1980).

Tested on: Rattus norvegicus
Assay: Hypotensive activity by intravenous administration to rats
Type: functional

Structure (SMILES) | Log 1/ED50
Cc1cccc(C)c1N=C1NCCN1 | 0.85
c1ccc(NC2=NCCN2)cc1 | -2.1
Fc1cccc(F)c1N=C1NCCN1 | -0.41
Cc1ccccc1N=C1NCCN1 | -0.67
Clc1ccccc1N=C1NCCN1 | 0.13
Clc1cccc(Cl)c1NC1=NCCN1 [CLONIDINE] | 1.99
c1cc2c(c(NC3=NCCN3)c1)CCCC2 [TRAMAZOLINE] | 0.47
